Experimental data as given in PMC3666979, “Eliciting Renal Failure in Mosquitoes with a Small-Molecule Inhibitor of Inward-Rectifying Potassium Channels” (PLoS ONE, 2013).
Marks after values point to notes of the source that are not given here.

Legend:
AeKir1 [1] = target: T1, AeKir1 (Aedes aegypti, UniProt L0EQS9); assay: Whole-cell patch clamp of AeKir1 expressed in T-REx-HEK-293 cells; format: cell-based; settings: for IC50: AeKir1-mediated currents, T-REx-HEK-293 cells
Description: T-REx-HEK293-AeKir1 cells were voltage clamped in the whole-cell configuration of the patch clamp technique after overnight induction with tetracycline (1 µg/ml). Patch electrodes were pulled from silanized 1.5 mm outer diameter borosilicate microhematocrit tubes using a Narishige PP-830 two-stage puller. Electrode resistance ranged from 2.5 to 3.5 MΩ when filled with the following intracellular solution (in mM): 135 KCl, 2 MgCl2, 1 EGTA, 10 HEPES free acid, 2 Na2ATP (Roche, Indianapolis, IN), pH 7.3, 275 mOsm. The standard bath solution contained (in mM): 135 NaCl, 5 KCl, 2 CaCl2, 1 MgCl2, 5 glucose, 10 HEPES free acid, pH 7.4, 290 mOsm. The high-K^+ bath contained (in mM): 90 NaCl, 50 KCl, 2 CaCl2, 1 MgCl2, 5 glucose, and 10 HEPES-free acid, pH 7.4, 290 mOsmol. Whole-cell currents were recorded under voltage-clamp conditions using an Axopatch 200B amplifier (Molecular Devices, Sunnyvale, CA). Electrical connections to the amplifier were made using Ag/AgCl wires and 3 M KCl/agar bridges. Electrophysiological data were collected at 5 kHz and filtered at 1 kHz. Data acquisition and analysis were performed using pClamp 9.2 software (Axon Instruments). After achieving stable whole-cell currents, VU573 or VU342 was applied intermittently or continuously for 2 to 10 min, followed by application of 2 mM BaCl2. All recordings were made at room temperature (20–23°C).

[2] = system: principal cells of isolated Malpighian tubules; assay: Two-electrode voltage clamp of principal cells in isolated Malpighian tubules; format: cell-based, Aedes aegypti; settings: for Rpc (kΩ) / Vbl (mV): VU573 10 µM or barium 5 mM, means ± SEM
Description: The basolateral membrane voltage (Vbl) and input resistance (Rpc) of principal cells were measured in isolated Malpighian tubules using two-electrode voltage clamping, as described previously. In each experiment, a single principal cell near the distal (blind) end of the tubule was impaled with two glass microelectrodes: one measured Vbl and the other injected current (Im). The Rpc of the impaled cell was calculated from current-voltage plots that were generated via voltage clamping (see ref. [25] for details). After recording a steady-state Vbl and Rpc (control) from the impaled cell, either VU573 (10 µM) or BaCl2 (5 mM) was added to the peritubular bath. The resulting Vbl and Rpc (treatment) were measured again upon reaching a new steady-state (usually 1–2 min later).
(§1) Data were analyzed using Prism 5 for Windows (Graphpad Software) and Excel (Microsoft Corp). To compare the rates of fluid secretion among control, vehicle, VU573, and VU342 treatments, a one-way ANOVA was performed with a Newman-Keuls posttest. To compare the Vbl and Rpc values of principal cells between control and treatment periods a paired t-test was performed.

[3] = system: adult female mosquitoes (Aedes aegypti); assay: Mosquito toxicology: incapacitation 24 h after intrathoracic injection (69 nl); format: in vivo; settings: for mosquitoes bloated (retained fluid) / % Incapacitated (flightless or dead): 69 nl of 10 mM in PBS/15% DMSO; for mosquitoes bloated (retained fluid): 24 h; for % Incapacitated (flightless or dead): within 24 hours
Description: (§2) Mosquitoes were first anesthetized on ice and then injected with 69 nl of fluid (see below) using a pulled-glass capillary attached to a nanoliter injector (Nanoject II, Drummond Scientific Company, Broomall, PA). The injected fluid was a sodium-based phosphate-buffered saline (Na^+-PBS) containing 15% DMSO and various concentrations of VU573 or VU342 to deliver the doses indicated in Figures 2A, 2C, and S3. The Na^+-PBS consisted of the following in mM: 137 NaCl, 2.7 KCl, 10 Na2HPO4, and 2 KH2PO4 (pH 7.5). After injection, the mosquitoes were placed in a small cage (10 females per cage) within a rearing chamber (28°C, 80% relative humidity, 12∶12 light∶dark) and allowed free access to a solution of 10% sucrose. The mosquitoes were observed 24 h after injection.
(§3) Data were analyzed using Prism 5 for Windows (Graphpad Software). To generate a dose-response curve for VU573, the doses (x-axis) were log transformed and then a non-linear curve was fitted to the data using the ‘log(agonist) vs. response’ algorithm. An ED50 was calculated from this curve. To compare 1) the incapacitating effects among the vehicle, VU573, and VU342 treatments, and 2) the rates of urine excretion among the control, vehicle, VU573, and VU342 treatments, one-way ANOVAs were performed with Newman-Keuls posttests. To compare the incapacitating effects between the vehicle and VU573 within each mosquito species, a paired t-test was used.

[4] = system: intact mosquitoes (Ae. aegypti); assay: Urine excretion rate of intact mosquitoes after 900 nl HBS injection; format: in vivo, Aedes aegypti; settings: 2 h
Description: Urine excretion rates from intact mosquitoes (Ae. aegypti) were measured using a method modified from the laboratory of Hansen. After anesthetizing mosquitoes on ice they were injected as described above with 900 nl of fluid (100 nl/s). The injected fluid was one of two HEPES-buffered saline (HBS) solutions containing 1.8% DMSO with 0.77 mM VU573 or 0.77 mM VU342. Vehicle controls received the respective HBS with DMSO alone. The Na^+-HBS consisted of the following in mM: 146 NaCl, 4.2 N-methyl-D-glucammonium (NMDG)-Cl, and 25 mM HEPES (pH 7.5). The K^+-HBS consisted of the following in mM: 10 mM NaCl, 75 mM KCl, 65.2 mM NMDG-Cl, and 25 mM HEPES (pH 7.5). After injection, mosquitoes were placed immediately in a graduated, packed-cell volume tube (MidSci, St. Louis, MO; 3 mosquitoes per tube) at room temperature. The mosquitoes were removed from the tubes with forceps after 2 h and the excreted urine was centrifuged into the graduated column of the tube for measurement. Uninjected control mosquitoes were handled exactly as above without the injection step. Data were analyzed using Prism 5 for Windows (Graphpad Software). To generate a dose-response curve for VU573, the doses (x-axis) were log transformed and then a non-linear curve was fitted to the data using the ‘log(agonist) vs. response’ algorithm. An ED50 was calculated from this curve. To compare 1) the incapacitating effects among the vehicle, VU573, and VU342 treatments, and 2) the rates of urine excretion among the control, vehicle, VU573, and VU342 treatments, one-way ANOVAs were performed with Newman-Keuls posttests. To compare the incapacitating effects between the vehicle and VU573 within each mosquito species, a paired t-test was used.

[5] = system: isolated Malpighian tubules; assay: Fluid secretion by isolated Malpighian tubules (Ramsay method); parameters: species or system Aedes aegypti; settings: 10 µM in peritubular bath, after 2 hours, high-potassium Ringer
Description: Fluid secretion rates from isolated Malpighian tubules (Ae. aegypti) were measured in vitro using the method described in [25], which is modified from that of Ramsay. In brief, isolated tubules were bathed in a 50 µl drop of a mosquito Ringer solution with elevated K^+ (see composition below), which was then covered with light mineral oil. A glass hook was used to pull the open proximal end of the tubule into the mineral oil where fluid was secreted. The diameter of the droplet was measured to calculate the secreted volumes.
In one set of tubules, the initial spontaneous rate of fluid secretion was calculated during the first 30 min (control). In another set of tubules, the rates of fluid secretion were determined 2 h after adding one of the following to the peritubular bath: the vehicle (0.05% DMSO), VU573 (10 µM), or VU342 (10 µM). The Ringer solution consisted of the following in mM: 119.4 NaCl, 34 KCl, 25 HEPES, 1.8 NaHCO3, 1.7 CaCl2, and 1.0 MgSO4, pH 7.1.
as §1

AeKir1 [6] = target: T1, AeKir1; assay: Thallium (Tl+) flux assay of AeKir1 in T-REx-HEK-293 cells; format: cell-based; settings: AeKir1-mediated Tl+ flux, means ± SEM
Description: Compound master antagonist plates were created by serial diluting compounds 1∶3 from 30 mM stocks in 100% DMSO using the BRAVO liquid handler (Agilent Technologies, Santa Clara, CA). Assay daughter plates were created using the ECHO 555 liquid hander (Labcyte, Sunnyvale, CA), transferring 240 nl from the master plate to the daughter plate for each well followed by addition of 40 µl of assay buffer resulting in antagonist compound concentration response curves starting at 200 µM (2× final concentration). […] Cell plates and daughter compound plates were loaded onto a kinetic imaging plate reader (FDSS 6000; Hamamatsu Corporation, Bridgewater, NJ). […] Appropriate baseline readings were taken (10 images at 1 Hz; excitation, 470±20 nm; emission, 540±30 nm) and 20 µl test compounds were added followed by 50 images at 1 Hz additional baseline. Following a 20 minute incubation period, baseline readings were taken for 10 seconds followed by addition of 10 µl of Tl^+ stimulus buffer. […] Data were analyzed using Excel (Microsoft Corp, Redmond, WA). […] The slope of the fluorescence increase beginning 5 s after Tl^+ addition and ending 15 s after Tl^+ addition was calculated. […] Potencies were calculated from fits using a four parameter logistic equation.

[7] = system: adult female Aedes albopictus; assay: Mosquito toxicology: incapacitation 24 h after injection (69 nl); format: in vivo; settings: 69 nl Na+-PBS with 10 mM
Description: as §2, §3
(§4) Supplementary file pone.0064905.s003.tif: Figure S3 Incapacitating effects of VU573 in three species of mosquitoes. Adult female mosquitoes were injected with Na^+- PBS (69 nl) containing the vehicle (15% DMSO) or VU573 (10 mM). ‘% Incapacitated’ refers to the proportion of mosquitoes that are flightless or dead within 24 h after injection. Values are means ± SEM (n = 4 independent trials of 10 mosquitoes). Statistical differences between vehicle and VU573-treated mosquitoes were determined by a paired t-test for each species. […]

[8] = system: adult female Culex pipiens; assay: as above; format: in vivo; settings: 69 nl Na+-PBS with 10 mM
Description: as §2, §3, §4

[9] = system: adult female Anopheles gambiae; assay: as above; format: in vivo; settings: 69 nl Na+-PBS with 10 mM
Description: as §2, §3, §4

[10] = system: adult female mosquitoes (Ae. aegypti); assay: Mosquito mortality after 900 nl Na+- or K+-PBS injection; format: in vivo, Aedes aegypti
Description: A similar approach was used to determine the toxicity of VU573 after a stress to hemolymph Na^+ or K^+ homeostasis (Figure 2F). However, in these experiments each mosquito was injected with 900 nl of fluid (100 nl/s) and the mosquitoes were not given access to sucrose. The injected fluid was a Na^+-PBS or K^+-PBS containing 1.1% DMSO and 0.77 mM of VU573. Vehicle controls received the respective PBS with DMSO alone. The K^+-PBS consisted of the following in mM: 2.7 NaCl, 137 KCl, 2 Na2HPO4, and 10 KH2PO4 (pH 7.5).

[11] = 900 nl K+-HBS containing 0.77 mM compound
[12] = 900 nl Na+-HBS containing 0.77 mM compound
[13] = 10 µM peritubular, change vs control
[14] = dose-response experiment, 24 h after injection

T1 sequence (L0EQS9 entry or part of it): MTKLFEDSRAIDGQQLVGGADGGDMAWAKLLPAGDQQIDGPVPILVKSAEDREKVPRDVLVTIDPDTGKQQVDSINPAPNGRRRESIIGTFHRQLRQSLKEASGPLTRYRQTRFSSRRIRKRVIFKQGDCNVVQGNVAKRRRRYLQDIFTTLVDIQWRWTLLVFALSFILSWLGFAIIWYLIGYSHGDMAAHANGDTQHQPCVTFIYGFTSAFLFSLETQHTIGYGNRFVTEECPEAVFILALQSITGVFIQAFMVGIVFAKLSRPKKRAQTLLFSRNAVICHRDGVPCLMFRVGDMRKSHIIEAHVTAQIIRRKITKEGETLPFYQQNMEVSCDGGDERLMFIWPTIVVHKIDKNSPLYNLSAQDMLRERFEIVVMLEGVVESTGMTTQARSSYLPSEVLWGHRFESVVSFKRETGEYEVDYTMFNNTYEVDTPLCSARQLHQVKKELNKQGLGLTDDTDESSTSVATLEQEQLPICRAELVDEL

Row | Compound | IC50 (AeKir1 [1]) [µM] | Rpc (kΩ) [2] | Vbl (mV) [2] | mosquitoes bloated (retained fluid) [3] | % Incapacitated (flightless or dead) [3] | rate of urine excretion [4, 11] | rate of urine excretion [4, 12] [nL/min] | rate of fluid secretion [5] | also measured
1 | [Ba+2].[Cl-].[Cl-] [Barium, BaCl2, reference compound] | 10 | 322.8±31.0 ^d kΩ | −59.3±3.3 ^c mV | – | – | – | – | – | –
2 | N=c1n(Cc2ccccc2)c2ccccc2n1CC(O)CN1CCOCC1 (centres unmarked) [VU342] | 112 ± 1.1 | – | – | none | less than 20% | unaffected | 5.7 | no effect on the rate of fluid secretion | times less potent than VU573 at inhibiting AeKir1 (AeKir1 [1]; ratio of IC50): 22 times; maximal inhibition of AeKir1 (AeKir1 [1]; requires 300 µM): ~65%
3 | Cc1ccc(OCC(O)Cn2c(=N)n(Cc3ccccc3)c3ccccc32)cc1 (centres unmarked) [VU573] | 5.14 ± 1.2 | 255.3±15.4 ^a kΩ | −52.4±4.5 ^b mV | 10% | ~100% | 0.73 nL/min | 2.14 | 0.26 nL/min | hyperpolarization of basolateral membrane voltage (Vbl) [2, 13]: 7.0 mV; increase of input resistance (Rpc) [2, 13]: 5.7 kΩ; IC50 (AeKir1 [6]): 15 µM; proportion of incapacitated mosquitoes that were dead [3, 14]: 7.7%; proportion of incapacitated mosquitoes that were flightless [3, 14]: 92.3%; proportion of incapacitated mosquitoes with greatly distended abdomens (bloated) [3, 14]: 3.6%; ED50 (incapacitated: flightless or dead) ([3]; within 24 h after injection of 69 nl PBS/15% DMSO into hemolymph): 53.6 pmol; incapacitating effect [7]: incapacitates these mosquitoes; incapacitating effect [8]: incapacitates these mosquitoes; incapacitating effect [9]: incapacitates these mosquitoes; mortality compared to vehicle ([10]; 900 nl K+-PBS with 0.77 mM): significantly increases mortality; mortality compared to vehicle ([10]; 900 nl Na+-PBS with 0.77 mM): does not significantly increase mortality; flightlessness ([10]; 900 nl Na+-PBS with 0.77 mM, within 24 hours): renders them flightless
